{"source": "patent US20110009381A1", "about": "“SOLUBILIZED THIAZOLOPYRIDINES” (Sirtis Pharmaceuticals, Inc., priority 2007, published 2011)", "target": "T1, SIRT1 (Homo sapiens, UniProt Q96EB6)", "T1 sequence (Q96EB6 1-747)": "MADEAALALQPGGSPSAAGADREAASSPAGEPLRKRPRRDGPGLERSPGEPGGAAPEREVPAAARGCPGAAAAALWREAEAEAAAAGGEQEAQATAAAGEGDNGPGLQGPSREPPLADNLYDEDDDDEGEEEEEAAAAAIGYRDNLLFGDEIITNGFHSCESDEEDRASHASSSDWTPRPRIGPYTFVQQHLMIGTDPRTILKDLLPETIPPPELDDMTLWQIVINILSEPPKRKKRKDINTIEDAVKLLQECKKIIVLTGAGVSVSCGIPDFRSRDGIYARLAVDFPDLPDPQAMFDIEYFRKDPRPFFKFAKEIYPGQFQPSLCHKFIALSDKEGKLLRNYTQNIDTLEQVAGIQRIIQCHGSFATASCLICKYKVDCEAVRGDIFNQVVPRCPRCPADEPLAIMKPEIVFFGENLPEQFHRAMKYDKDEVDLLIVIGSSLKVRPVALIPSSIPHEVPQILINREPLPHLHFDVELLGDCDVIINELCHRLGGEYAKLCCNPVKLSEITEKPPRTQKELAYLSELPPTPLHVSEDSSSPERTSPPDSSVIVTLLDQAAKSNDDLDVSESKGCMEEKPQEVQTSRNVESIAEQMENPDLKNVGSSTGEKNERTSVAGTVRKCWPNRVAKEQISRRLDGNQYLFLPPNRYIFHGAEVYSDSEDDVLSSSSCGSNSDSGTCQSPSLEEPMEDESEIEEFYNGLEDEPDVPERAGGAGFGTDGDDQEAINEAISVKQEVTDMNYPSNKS", "test": "Mass spectrometry based assay to identify modulators of SIRT1 activity (deacetylation of p53-based acetylated peptide substrate)", "assay_type": "biochemical", "conditions": "10 nM SIRT1, 0.5 μM peptide substrate, 120 μM βNAD+, 25 minutes at 25° C.; for EC1.5: SIRT1 activation", "from_the_text": "A mass spectrometry based assay was used to identify modulators of SIRT1 activity. The mass spectrometry based assay utilizes a peptide having 20 amino acid residues as follows: Ac-EE-K(biotin)-GQSTSSHSK(Ac)NleSTEG-K(5TMR)-EE-NH2 (SEQ ID NO: 1) wherein K(Ac) is an acetylated lysine residue and Nle is a norleucine. The peptide is labeled with the fluorophore 5TMR (excitation 540 nm/emission 580 nm) at the C-terminus. The sequence of the peptide substrate is based on p53 with several modifications. In addition, the methionine residue naturally present in the sequence was replaced with the norleucine because the methionine may be susceptible to oxidation during synthesis and purification.\nThe mass spectrometry assay is conducted as follows: 0.5 μM peptide substrate and 120 μM βNAD^+ is incubated with 10 nM SIRT1 for 25 minutes at 25° C. in a reaction buffer (50 mM Tris-acetate pH 8, 137 mM NaCl, 2.7 mM KCl, 1 mM MgCl2, 5 mM DTT, 0.05% BSA). Test compounds may be added to the reaction as described above. The SirT1 gene is cloned into a T7-promoter containing vector and transformed into BL21(DE3). After the 25 minute incubation with SIRT1, 10 μL of 10% formic acid is added to stop the reaction. Reactions are sealed and frozen for later mass spec analysis. Determination of the mass of the substrate peptide allows for precise determination of the degree of acetylation (i.e. starting material) as compared to deacetylated peptide (product).\nA control for inhibition of sirtuin activity is conducted by adding 1 μL of 500 mM nicotinamide as a negative control at the start of the reaction (e.g., permits determination of maximum sirtuin inhibition). A control for activation of sirtuin activity is conducted using 10 nM of sirtuin protein, with 1 μL of DMSO in place of compound, to determine the amount of deacetylation of the substrate at a given timepoint within the linear range of the assay. This timepoint is the same as that used for test compounds and, within the linear range, the endpoint represents a change in velocity.\nFor the above assay, SIRT1 protein was expressed and purified as follows. The SirT1 gene was cloned into a T7-promoter containing vector and transformed into BL21(DE3). The protein was expressed by induction with 1 mM IPTG as an N-terminal His-tag fusion protein at 18° C. overnight and harvested at 30,000×g. Cells were lysed with lysozyme in lysis buffer (50 mM Tris-HCl, 2 mM Tris[2-carboxyethyl]phosphine (TCEP), 10 μM ZnCl2, 200 mM NaCl) and further treated with sonication for 10 min for complete lysis. The protein was purified over a Ni-NTA column (Amersham) and fractions containing pure protein were pooled, concentrated and run over a sizing column (Sephadex S200 26/60 global). The peak containing soluble protein was collected and run on an Ion-exchange column (MonoQ). Gradient elution (200 mM-500 mM NaCl) yielded pure protein. This protein was concentrated and dialyzed against dialysis buffer (20 mM Tris-HCl, 2 mM TCEP) overnight. The protein was aliquoted and frozen at −80° C. until further use.\nSirtuin modulating compounds that activated SIRT1 were identified using the assay described above and are shown below in Table 1. The EC1-5 values for the activating compounds are represented by A′ (EC1.5<250 nM), A (EC1.5≧250 nM and ≦1 uM), B (EC1.5>1 and ≦10 uM), or C (EC1.5>10 uM). The percent maximum fold activation is represented by A (Fold activation≧300%), B (Fold Activation≧150% and <300%), or C (Fold Activation<150%)."}
{"molecule": "Cl.O=C(Nc1ccccc1-c1nc2cccnc2s1)c1cc(NCCN2CCCC2)nc(-c2ccccc2)n1", "note": "[Compound 62]", "values": [{"measurement": "FOLD ACT. (percent maximum fold activation)", "value": "A (Fold activation≧300%)"}, {"measurement": "EC1.5", "value": "A′ (EC1.5<250 nM)"}]}
{"molecule": "O=C(Nc1ccccc1-c1nc2cccnc2s1)c1cc(NC2CCCCC2)nc(-c2ccccc2)n1", "note": "[Compound 63]", "values": [{"measurement": "FOLD ACT. (percent maximum fold activation)", "value": "C (Fold Activation<150%)"}, {"measurement": "EC1.5", "value": "C (EC1.5>10 uM)"}]}
{"molecule": "CNc1cc(C(=O)Nc2ccccc2-c2nc3cccnc3s2)nc(-c2ccccc2)n1", "note": "[Compound 64]", "values": [{"measurement": "FOLD ACT. (percent maximum fold activation)", "value": "C (Fold Activation<150%)"}, {"measurement": "EC1.5", "value": "C (EC1.5>10 uM)"}]}
{"molecule": "CC(C)N1CCN(c2cc(C(=O)Nc3ccccc3-c3nc4cccnc4s3)nc(-c3ccccc3)n2)CC1.Cl", "note": "[Compound 65]", "values": [{"measurement": "FOLD ACT. (percent maximum fold activation)", "value": "B (Fold Activation≧150% and <300%)"}, {"measurement": "EC1.5", "value": "A′ (EC1.5<250 nM)"}]}
{"molecule": "Cl.O=C(Nc1ccccc1-c1nc2cccnc2s1)c1cc(NCCN2CCCCC2)nc(-c2ccccc2)n1", "note": "[Compound 67]", "values": [{"measurement": "FOLD ACT. (percent maximum fold activation)", "value": "A (Fold activation≧300%)"}, {"measurement": "EC1.5", "value": "A′ (EC1.5<250 nM)"}]}
{"molecule": "COCCN(CCOC)c1cc(C(=O)Nc2ccccc2-c2nc3cccnc3s2)nc(-c2ccccc2)n1", "note": "[Compound 68]", "values": [{"measurement": "FOLD ACT. (percent maximum fold activation)", "value": "A (Fold activation≧300%)"}, {"measurement": "EC1.5", "value": "A′ (EC1.5<250 nM)"}]}
{"molecule": "O=C(Nc1ccccc1-c1nc2cccnc2s1)c1cc(NC(CO)CO)nc(-c2ccccc2)n1", "note": "[Compound 69]", "values": [{"measurement": "FOLD ACT. (percent maximum fold activation)", "value": "A (Fold activation≧300%)"}, {"measurement": "EC1.5", "value": "A′ (EC1.5<250 nM)"}]}
{"molecule": "C[C@@H]1CN(c2cc(C(=O)Nc3ccccc3-c3nc4cccnc4s3)nc(-c3ccccc3)n2)C[C@H](C)O1", "note": "[Compound 70]", "values": [{"measurement": "FOLD ACT. (percent maximum fold activation)", "value": "B (Fold Activation≧150% and <300%)"}, {"measurement": "EC1.5", "value": "A (EC1.5≧250 nM and ≦1 uM)"}]}
{"molecule": "O=C(Nc1ccccc1-c1nc2cccnc2s1)c1cc(N2C[C@H]3C[C@@H]2CN3)nc(-c2ccccc2)n1", "note": "[Compound 71]", "values": [{"measurement": "FOLD ACT. (percent maximum fold activation)", "value": "A (Fold activation≧300%)"}, {"measurement": "EC1.5", "value": "A′ (EC1.5<250 nM)"}]}
{"molecule": "O=C(Nc1ccccc1-c1nc2cccnc2s1)c1cc(NC2CCCNC2)nc(-c2ccccc2)n1", "note": "(centres unmarked) [Compound 72]", "values": [{"measurement": "FOLD ACT. (percent maximum fold activation)", "value": "A (Fold activation≧300%)"}, {"measurement": "EC1.5", "value": "A′ (EC1.5<250 nM)"}]}
{"molecule": "CCSCCNc1cc(C(=O)Nc2ccccc2-c2nc3cccnc3s2)nc(-c2ccccc2)n1", "note": "[Compound 73]", "values": [{"measurement": "FOLD ACT. (percent maximum fold activation)", "value": "B (Fold Activation≧150% and <300%)"}, {"measurement": "EC1.5", "value": "B (EC1.5>1 and ≦10 uM)"}]}
{"molecule": "CCS(=O)(=O)CCNc1cc(C(=O)Nc2ccccc2-c2nc3cccnc3s2)nc(-c2ccccc2)n1", "note": "[Compound 74]", "values": [{"measurement": "FOLD ACT. (percent maximum fold activation)", "value": "A (Fold activation≧300%)"}, {"measurement": "EC1.5", "value": "A′ (EC1.5<250 nM)"}]}
{"molecule": "C[C@H](Nc1cc(C(=O)Nc2ccccc2-c2nc3cccnc3s2)nc(-c2ccccc2)n1)C(=O)O", "note": "[Compound 75]", "values": [{"measurement": "FOLD ACT. (percent maximum fold activation)", "value": "A (Fold activation≧300%)"}, {"measurement": "EC1.5", "value": "A (EC1.5≧250 nM and ≦1 uM)"}]}
{"molecule": "NCCCOc1cc(C(=O)Nc2ccccc2-c2nc3cccnc3s2)nc(-c2ccccc2)n1", "note": "[Compound 76]", "values": [{"measurement": "FOLD ACT. (percent maximum fold activation)", "value": "A (Fold activation≧300%)"}, {"measurement": "EC1.5", "value": "A′ (EC1.5<250 nM)"}]}
{"molecule": "O=C(Nc1ccccc1-c1nc2cccnc2s1)c1ccc(CN2CCOCC2)c(-c2ccccc2)n1", "note": "[Compound 77]", "values": [{"measurement": "FOLD ACT. (percent maximum fold activation)", "value": "B (Fold Activation≧150% and <300%)"}, {"measurement": "EC1.5", "value": "A (EC1.5≧250 nM and ≦1 uM)"}]}
{"molecule": "Cc1ccn(CCNc2cc(C(=O)Nc3ccccc3-c3nc4cccnc4s3)nc(-c3ccccc3)n2)n1", "note": "[Compound 78]", "values": [{"measurement": "FOLD ACT. (percent maximum fold activation)", "value": "A (Fold activation≧300%)"}, {"measurement": "EC1.5", "value": "A′ (EC1.5<250 nM)"}]}
{"molecule": "O=C(Nc1ccccc1-c1nc2cccnc2s1)c1cc(C#CCO)nc(-c2ccccc2)n1", "note": "[Compound 79]", "values": [{"measurement": "FOLD ACT. (percent maximum fold activation)", "value": "C (Fold Activation<150%)"}, {"measurement": "EC1.5", "value": "C (EC1.5>10 uM)"}]}
{"molecule": "O=C(Nc1ccccc1-c1nc2cccnc2s1)c1cc(OCCO)nc(-c2ccccc2)n1", "note": "[Compound 80]", "values": [{"measurement": "FOLD ACT. (percent maximum fold activation)", "value": "C (Fold Activation<150%)"}, {"measurement": "EC1.5", "value": "C (EC1.5>10 uM)"}]}
{"molecule": "CCN(CC)CCCNc1cc(C(=O)Nc2ccccc2-c2nc3cccnc3s2)nc(-c2ccccc2)n1", "note": "[Compound 81]", "values": [{"measurement": "FOLD ACT. (percent maximum fold activation)", "value": "A (Fold activation≧300%)"}, {"measurement": "EC1.5", "value": "A′ (EC1.5<250 nM)"}]}
